# Data from publication PMC4579270, “Identification and Characterization of an Irreversible Inhibitor of CDK2” (Chemistry & Biology, 2015).
# Read-outs that look alike come from different tables or passages of the source.
# What was measured:
# [1] = molecular target: CDK2-Cyclin A (Homo sapiens, UniProt P24941); experiment: ESI-MS of covalent adduct; set-up: made in house; host or cells: Escherichia coli (CDK2 co-expressed with S. cerevisiae CAK1); conditions: wild-type CDK2/cyclin A, overnight incubation, vs control
# Protocol: To determine whether NU6300 binds covalently to CDK2, recombinant CDK2/cyclin A was incubated overnight with NU6300 and then analyzed by electrospray ionization mass spectrometry (ESI-MS) (Figure S1A). […]
# Protein expression and purification
# Site-directed mutagenesis of CDK2 was performed using the QuikChange II kit (Stratagene) following the manufacturer’s instructions and verified by DNA sequencing.
# Wild-type CDK2 phosphorylated at Thr160, untagged human cyclin A2 (residues 174-432), S. cerevisiae GST–CAK, GST–3C-protease and GST–pRb (residues 792–928) were expressed and purified as previously described (Brown et al., 1999a; Brown et al., 1999b; Welburn and Endicott, 2005). GST-CDK2 mutants were expressed and purified as described (Welburn and Endicott, 2005) and subsequently phosphorylated in vitro by GST-CAK essentially as described in (Morris et al., 2002) except that multiple CAK aliquots were required to enhance the levels of CDK2 Thr160 phosphorylation. […]
# CDK2/cyclin A (200 µM) was incubated overnight with 1 mM inhibitor or DMSO, and then dialysed for 8 h with regular replacement of dialysis buffer into HEPES-buffered saline (50 mM HEPES, pH 7.5, 250 mM NaCl, 0.02% MTG). […] Reactions were stopped by addition of SDS-PAGE loading buffer and analyzed by SDS-PAGE. […]
# [2] = molecular target: T1, TAK1 (Homo sapiens, UniProt O43318); experiment: Dundee kinase screen re-test (standard format and 4 hour pre-incubation); type: biochemical; conditions: TAK1, 0.5µM
# T1 sequence (O43318 1-303 limits assumed): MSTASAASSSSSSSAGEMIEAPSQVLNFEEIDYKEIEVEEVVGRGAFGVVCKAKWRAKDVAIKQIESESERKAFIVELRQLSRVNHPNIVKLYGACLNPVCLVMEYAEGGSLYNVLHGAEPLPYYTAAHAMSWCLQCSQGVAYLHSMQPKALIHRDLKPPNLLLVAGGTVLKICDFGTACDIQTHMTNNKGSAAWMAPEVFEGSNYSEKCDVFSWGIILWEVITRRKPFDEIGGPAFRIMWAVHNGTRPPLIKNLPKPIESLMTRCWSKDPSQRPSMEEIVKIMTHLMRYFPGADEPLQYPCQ
# Protocol: (§1) Prior to determining its cellular activity, we carried out a screen to assess its selectivity against a panel of 131 protein kinases under conditions that would not distinguish between a reversible or irreversible mode of action. […] These 13 kinases and 29 additional kinases, selected for their known sensitivity to other inhibitors within the purine series, were then tested in a modified screening format in which the assay was repeated following a 4-hr pre-incubation (Table S3B). […] However, conformational flexibility around the active site may promote such an interaction with a residue from another part of the structure ([Martin et al., 2012]).
# (§2) Table S3, Related to Figure 4. NCL-0006300 protein kinase selectivity. […]
# Dundee protein kinase screen (Bain et al., 2007). Values given are % activity remaining and are the average of duplicate measurements: 0-25% (red), 26-50% (yellow), 51-80% […]
# (black) and above 81% (green). […]
# (§3) (B) Selected kinases were re-tested in the Dundee kinase screen against NU6300 at a single concentration of 0.5 µM both in the standard assay format and following a 4 hour pre-incubation in the presence of NU6300. Kinases which have very low activity after the 4 hour incubation so that results might not be wholly reliable are boxed in salmon. Kinases where the activity after a 4 hour pre-incubation is < 50% that in the standard assay format are highlighted in red.
# [3] = system: GCK (MAP4K3); experiment: as above; type: biochemical
# Protocol: as §1, §2, §3
# [4] = molecular target: EPH-B4 (Homo sapiens, UniProt P54760); experiment: Dundee protein kinase screen; type: biochemical; conditions: EPH-B4, 1µM; read-out: %Remaining activity at 1µM NU6300
# Outline: (§4)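 Selectivity panel of 131 protein kinases, inhibitor tested at a single concentration of 1 µM; values are % kinase activity remaining, mean of duplicates. Re-test of selected kinases used 0.5 µM in the standard format and again after a 4 hour pre-incubation with the inhibitor.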
# [5] = molecular target: DDR2 (Homo sapiens, UniProt Q16832); experiment: Dundee protein kinase screen; type: biochemical; conditions: DDR2, 1µM; read-out: %Remaining activity at 1µM NU6300
# Outline: as §4
# [6] = molecular target: MAPKAP-K3 (Homo sapiens, UniProt Q16644); experiment: Dundee protein kinase screen; type: biochemical; conditions: MAPKAP-K3, 1µM; read-out: %Remaining activity at 1µM NU6300
# Outline: as §4
# [7] = molecular target: IRAK4 (Homo sapiens, UniProt Q9NWZ3); experiment: Dundee protein kinase screen; type: biochemical; conditions: IRAK4, 1µM; read-out: %Remaining activity at 1µM NU6300
# Outline: as §4
# Chain of EPH-B4 (P54760 16-987): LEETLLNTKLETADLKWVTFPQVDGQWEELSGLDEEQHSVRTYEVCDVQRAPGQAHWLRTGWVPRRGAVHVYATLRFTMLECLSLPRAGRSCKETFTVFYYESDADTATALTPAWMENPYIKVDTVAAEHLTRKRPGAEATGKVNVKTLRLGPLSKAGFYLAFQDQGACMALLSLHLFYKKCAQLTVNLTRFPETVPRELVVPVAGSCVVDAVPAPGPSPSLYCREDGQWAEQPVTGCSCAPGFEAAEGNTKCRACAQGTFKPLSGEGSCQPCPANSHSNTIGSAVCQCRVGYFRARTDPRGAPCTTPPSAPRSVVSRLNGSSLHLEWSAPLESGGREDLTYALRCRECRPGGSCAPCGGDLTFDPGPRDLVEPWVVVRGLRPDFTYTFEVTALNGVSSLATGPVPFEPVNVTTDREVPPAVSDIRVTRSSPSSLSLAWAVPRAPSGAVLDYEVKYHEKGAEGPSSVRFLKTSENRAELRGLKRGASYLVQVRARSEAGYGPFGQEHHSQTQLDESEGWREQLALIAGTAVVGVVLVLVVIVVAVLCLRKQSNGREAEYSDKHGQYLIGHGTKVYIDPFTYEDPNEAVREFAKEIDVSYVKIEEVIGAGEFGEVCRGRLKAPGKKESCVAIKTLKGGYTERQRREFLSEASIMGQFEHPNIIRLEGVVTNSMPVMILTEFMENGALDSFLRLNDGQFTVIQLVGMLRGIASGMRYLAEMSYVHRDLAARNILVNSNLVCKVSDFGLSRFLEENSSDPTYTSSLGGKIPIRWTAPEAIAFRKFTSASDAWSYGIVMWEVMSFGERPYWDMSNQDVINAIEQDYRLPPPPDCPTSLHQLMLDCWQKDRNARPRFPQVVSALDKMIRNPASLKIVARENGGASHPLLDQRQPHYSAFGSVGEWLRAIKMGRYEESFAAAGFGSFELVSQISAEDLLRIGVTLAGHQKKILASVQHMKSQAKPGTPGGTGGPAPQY
# Chain of IRAK4 (Q9NWZ3 whole entry): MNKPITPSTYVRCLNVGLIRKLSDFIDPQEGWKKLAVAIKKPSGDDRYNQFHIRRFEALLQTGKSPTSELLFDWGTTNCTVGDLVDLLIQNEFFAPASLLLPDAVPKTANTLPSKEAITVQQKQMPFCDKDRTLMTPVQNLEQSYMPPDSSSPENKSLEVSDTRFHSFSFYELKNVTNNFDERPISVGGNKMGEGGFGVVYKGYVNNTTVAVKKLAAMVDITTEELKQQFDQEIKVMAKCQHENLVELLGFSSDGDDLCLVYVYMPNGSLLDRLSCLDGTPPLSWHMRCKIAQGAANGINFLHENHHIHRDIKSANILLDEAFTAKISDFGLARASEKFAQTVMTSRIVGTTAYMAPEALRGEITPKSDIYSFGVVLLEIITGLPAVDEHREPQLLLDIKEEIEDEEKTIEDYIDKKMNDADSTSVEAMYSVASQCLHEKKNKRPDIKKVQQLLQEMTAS
# Chain of DDR2 (Q16832 22-855): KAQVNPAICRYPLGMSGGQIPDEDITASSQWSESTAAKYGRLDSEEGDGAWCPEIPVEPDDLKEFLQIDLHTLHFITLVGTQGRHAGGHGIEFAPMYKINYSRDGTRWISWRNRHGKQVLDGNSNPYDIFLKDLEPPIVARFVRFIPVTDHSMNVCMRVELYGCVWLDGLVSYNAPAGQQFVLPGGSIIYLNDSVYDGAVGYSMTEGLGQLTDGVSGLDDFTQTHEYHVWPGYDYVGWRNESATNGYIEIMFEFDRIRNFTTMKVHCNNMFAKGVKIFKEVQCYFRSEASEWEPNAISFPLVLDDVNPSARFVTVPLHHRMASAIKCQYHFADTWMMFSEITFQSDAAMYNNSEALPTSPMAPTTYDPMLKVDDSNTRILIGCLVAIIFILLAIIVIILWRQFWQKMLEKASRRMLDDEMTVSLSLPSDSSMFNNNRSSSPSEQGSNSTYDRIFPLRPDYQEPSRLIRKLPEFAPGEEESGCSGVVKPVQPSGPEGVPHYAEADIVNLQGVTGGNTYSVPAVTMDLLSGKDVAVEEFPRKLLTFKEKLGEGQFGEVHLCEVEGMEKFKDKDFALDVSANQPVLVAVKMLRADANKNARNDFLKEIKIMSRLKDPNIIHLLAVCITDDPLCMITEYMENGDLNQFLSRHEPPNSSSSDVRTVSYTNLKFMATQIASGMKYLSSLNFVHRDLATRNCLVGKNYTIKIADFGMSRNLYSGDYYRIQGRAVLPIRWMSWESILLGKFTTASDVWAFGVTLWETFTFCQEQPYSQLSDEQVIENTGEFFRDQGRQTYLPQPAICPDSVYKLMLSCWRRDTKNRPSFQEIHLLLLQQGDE
# Chain of MAPKAP-K3 (Q16644 whole entry): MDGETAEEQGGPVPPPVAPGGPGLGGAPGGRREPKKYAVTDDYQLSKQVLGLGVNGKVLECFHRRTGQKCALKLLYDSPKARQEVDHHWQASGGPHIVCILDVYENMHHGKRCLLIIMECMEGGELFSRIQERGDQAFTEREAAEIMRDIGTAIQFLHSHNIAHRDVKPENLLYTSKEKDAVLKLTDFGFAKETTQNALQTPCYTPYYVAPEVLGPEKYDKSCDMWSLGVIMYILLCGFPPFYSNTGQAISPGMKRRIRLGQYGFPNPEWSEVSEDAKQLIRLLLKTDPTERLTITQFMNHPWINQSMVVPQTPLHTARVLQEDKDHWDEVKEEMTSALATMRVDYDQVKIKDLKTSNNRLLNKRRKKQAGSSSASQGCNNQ
smiles,measurement,setting,value
"C=CS(=O)(=O)c1ccc(Nc2nc(OCC3CCCCC3)c3nc[nH]c3n2)cc1 [NU6300, 6-(cyclohexylmethoxy)-N-(4-(vinylsulfonyl)phenyl)-9H-purin-2-amine]",increase in the mass of CDK2 (ESI-MS),[1],414 Da
same,remaining activity at 0.5 µM,"[2]; 4hr RT preincubation, read-out: %Remaining activity at 0.5µM NU6300 - 4hr RT preincubation",24%
same,remaining activity at 0.5 µM,"[2]; usual format, read-out: %Remaining activity at 0.5µM NU6300 - Usual assay format",19%
same,%Remaining activity at 0.5µM NU6300 - 4hr RT preincubation,"[3]; 0.5µM, 4hr RT preincubation",29%
same,%Remaining activity at 0.5µM NU6300 - Usual assay format,"[3]; 0.5µM, usual format",89%
same,additional loss of activity after pre-incubation,"[3]; 4-hr pre-incubation vs usual format, 0.5 µM",> 50%
same,remaining activity at 1 µM,[4],90%
same,remaining activity at 1 µM,[5],60%
same,remaining activity at 1 µM,[6],88%
same,remaining activity at 1 µM,[7],78%
